These results are taken from US11753407B2, “Compounds for treating spinal muscular atrophy” (PTC Therapeutics, Inc., priority 2012, dated 2023).

A value given as a limit tells only on which side of the number the result lay.

What is called melting point is the temperature of the solid-liquid transition.

Data set [1] has as its system SMN2 minigene mRNA (SMN2-A minigene) in HEK293H cells. In words: SMN2 minigene mRNA splicing RT-qPCR assay in cultured cells. In kind it is cell-based, human. The note with it: Homo sapiens, HEK293-H; concentration increasing full length SMN2 mRNA 1.5-fold relative to vehicle-treated cells; HEK293H cells with SMN2-A minigene, 24 hours, 7-point concentration data; read-out: EC1.5x for production of full length SMN2 mRNA. The essentials:
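HEK293H cells stably carrying SMN2-A minigene treated with compounds (7-point, 3.16-fold dilutions, duplicates) for 24 h at 37 °C. Full-length exon 7-containing minigene mRNA measured by multiplex RT-qPCR with GAPDH, normalized and expressed relative to vehicle (modified ΔΔCt); EC1.5× is concentration giving 1.5-fold increase.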
For orientation: Quantitative PCR measures a nucleic acid by following its amplification.

For data set [2], the system named is Smn protein in SMA patient fibroblast cells (GM03813). The data set is described as follows: Smn protein assay in cultured cells (SMN HTRF). In kind it is cell-based, human. The note with it: SMA patient fibroblast cells, 48 hours; for EC1.5x for Smn protein expression: 7-point concentration curve, SMN HTRF, concentration producing 1.5 times Smn protein vs DMSO vehicle control; for maximum fold (Fold) increase of Smn protein: 7-point concentration data, fold relative to vehicle control. Summed up:
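SMA patient fibroblasts (5,000/well, DMEM-10% FBS) treated 48 h at 37° C with 7-point, 3.16-fold compound series in triplicate; lysates read by SMN HTRF (665/620 nm ratio). Fold Smn increase over DMSO vehicle derived; EC1.5× is concentration giving 1.5-fold Smn, with maximum fold also reported.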
(In TR-FRET formats the signal depends on donor and acceptor labels being close together.)

In the case of `COc1ncc(-c2cc(=O)n3cc(N4CCNCC4)ccc3n2)cc1F` [Cpd 182, 2-(5-fluoro-6-methoxypyridin-3-yl)-7-(piperazin-1-yl)-4H-pyrido[1,2-a]pyrimidin-4-one], the melting point is 166 to 170 °C. In data set [1], the EC (1.5-fold increase) lay in the range of 0.3 to 1 µM. Further, in data set [2], the “EC1.5x for Smn protein expression” value was “*** (an EC1.5× between >0.3 μM and ≤1 μM is indicated by three stars (***))”; the “maximum fold (Fold) increase of Smn protein” value (“maximum fold (Fold) increase” below) was “**** (a fold increase between >1.5 and ≤1.65 is indicated by four stars (****))”.

In turn, `CCN1CC=C(c2ccc3nc(-c4ccc(OC)c(OC)c4)cc(=O)n3c2)CC1` [Compound 370, 2-(3,4-dimethoxyphenyl)-7-(1-ethyl-1,2,3,6-tetrahydropyridin-4-yl)-4H-pyrido[1,2-a]pyrimidin-4-one] yielded a melting point of 170 to 172 °C. Besides, the EC (1.5-fold increase) in data set [1] fell in the range of 0.1 to 0.3 µM. Moreover, in data set [2], the “EC1.5x for Smn protein expression” value is “*** (an EC1.5× between >0.3 μM and ≤1 μM is indicated by three stars (***))”; the “maximum fold (Fold) increase” value is reported as “***** (a fold increase >1.65 is indicated by five stars (*****))”.

With `Cc1cn2nc(-c3cc(=O)n4cc(N5CCN(C)CC5)ccc4n3)cc2c(O)n1` [Cpd 626, 2-(4-hydroxy-6-methylpyrazolo[1,5-a]pyrazin-2-yl)-7-(4-methylpiperazin-1-yl)-4H-pyrido[1,2-a]pyrimidin-4-one], the melting point was in the range of 280 to 283 °C. The EC (1.5-fold increase) in data set [1] was in the range of 0.3 to 1 µM. In addition, in data set [2], the “EC1.5x for Smn protein expression” value was “** (an EC1.5× between >1 μM and ≤3 μM is indicated by two stars (**))”; the “maximum fold (Fold) increase” value is reported as “***** (a fold increase >1.65 is indicated by five stars (*****))”.

Consider `Cc1cn2cc(-c3cc(=O)n4cc(N5CCN(CCO)[C@@H](C)C5)ccc4n3)cc(Cl)c2n1` [Compound 537, 2-(8-chloro-2-methylimidazo[1,2-a]pyridin-6-yl)-7-[(3S)-4-(2-hydroxyethyl)-3-methylpiperazin-1-yl]-4H-pyrido[1,2-a]pyrimidin-4-one], for which the melting point was 228 to 234 °C. Also, the EC (1.5-fold increase) in data set [1] is under 0.1 µM. Moreover, in data set [2], the “EC1.5x for Smn protein expression” value is listed as “**** (an EC1.5x≤0.3 μM is indicated by four stars (****))”; the “maximum fold (Fold) increase” value was “**** (a fold increase between >1.5 and ≤1.65 is indicated by four stars (****))”.

The compound `O=c1cc(-c2cccnc2)nc2ccc(N3CCNCC3)cn12` [Compound 228, 7-(piperazin-1-yl)-2-(pyridin-3-yl)-4H-pyrido[1,2-a]pyrimidin-4-one] displayed a melting point of 175 to 178 °C. Also, the EC (1.5-fold increase) in data set [1] was 1 to 3 µM. Also, the “maximum fold (Fold) increase” value in data set [2] is “** (a fold increase between >1.2 and ≤1.35 is indicated by two stars (**))”.

For `Cn1ccc2cc(-c3cc(=O)n4cc(N5CCNCC5)ccc4n3)cnc21` [Compound 129, 2-(1-methyl-1H-pyrrolo[2,3-b]pyridin-5-yl)-7-(piperazin-1-yl)-4H-pyrido[1,2-a]pyrimidin-4-one], the melting point lay within 230 to 233 °C. In data set [1], the EC (1.5-fold increase) fell in the range of 0.3 to 1 µM. Also, in data set [2], the “EC1.5x for Smn protein expression” value was “* (An EC1.5× for Smn protein expression between >3 μM and ≤10 μM is indicated by one star (*))”; the “maximum fold (Fold) increase” value is “*** (a fold increase between >1.35 and ≤1.5 is indicated by three stars (***))”.

As to `CCN1CCN(c2ccc3nc(-c4cc5c(C)nc(C)cn5n4)cc(=O)n3c2)CC1` [Compound 338, 2-(4,6-dimethylpyrazolo[1,5-a]pyrazin-2-yl)-7-(4-ethylpiperazin-1-yl)-4H-pyrido[1,2-a]pyrimidin-4-one], the melting point fell in the range of 251 to 253 °C. Also, in data set [1], the EC (1.5-fold increase) is under 0.1 µM. Besides, in data set [2], the “EC1.5x for Smn protein expression” value is “**** (an EC1.5x≤0.3 μM is indicated by four stars (****))” and the “maximum fold (Fold) increase” value is given as “***** (a fold increase >1.65 is indicated by five stars (*****))”.

Compound `O=c1cc(-c2cccc(F)c2)nc2ccc(N3CCNCC3)cn12` [Compound 61, 2-(3-fluorophenyl)-7-(piperazin-1-yl)-4H-pyrido[1,2-a]pyrimidin-4-one] yielded a melting point of 153 to 156 °C. Moreover, the EC (1.5-fold increase) in data set [1] lay within 0.3 to 1 µM. Moreover, in data set [2], the “EC1.5x for Smn protein expression” value was “*** (an EC1.5× between >0.3 μM and ≤1 μM is indicated by three stars (***))”; the “maximum fold (Fold) increase” value was “**** (a fold increase between >1.5 and ≤1.65 is indicated by four stars (****))”.

`Cc1cn2nc(-c3cc(=O)n4cc(N5CCC(CN6CCCCC6)CC5)ccc4n3)cc2c(C)n1` [Compound 572, 2-(4,6-dimethylpyrazolo[1,5-a]pyrazin-2-yl)-7-[4-(piperidin-1-ylmethyl)piperidin-1-yl]-4H-pyrido[1,2-a]pyrimidin-4-one] returned a melting point of 192 to 195 °C. Also, in data set [1], the EC (1.5-fold increase) was 0.3 to 1 µM. Moreover, in data set [2], the “EC1.5x for Smn protein expression” value was “** (an EC1.5× between >1 μM and ≤3 μM is indicated by two stars (**))”; the “maximum fold (Fold) increase” value is “**** (a fold increase between >1.5 and ≤1.65 is indicated by four stars (****))”.

With `CCc1nc(C)cn2nc(-c3cc(=O)n4cc(C5CCN(CCO)CC5)cc(C)c4n3)cc12` [Compound 793, 2-(4-ethyl-6-methylpyrazolo[1,5-a]pyrazin-2-yl)-7-[1-(2-hydroxyethyl)piperidin-4-yl]-9-methyl-4H-pyrido[1,2-a]pyrimidin-4-one], the melting point lay within 210 to 216 °C. In addition, in data set [1], the EC (1.5-fold increase) is under 0.1 µM. For the same compound, in data set [2], the “EC1.5x for Smn protein expression” value is listed as “**** (an EC1.5x≤0.3 μM is indicated by four stars (****))” and the “maximum fold (Fold) increase” value is on record as “***** (a fold increase >1.65 is indicated by five stars (*****))”.

With `O=c1cc(-c2cc(F)cc(Cl)c2)nc2ccc(N3CCNCC3)cn12` [Compound 190, 2-(3-chloro-5-fluorophenyl)-7-(piperazin-1-yl)-4H-pyrido[1,2-a]pyrimidin-4-one], the melting point is 180 to 184 °C. Also, in data set [1], the EC (1.5-fold increase) lay within 0.3 to 1 µM. In addition, in data set [2], the “EC1.5x for Smn protein expression” value was “** (an EC1.5× between >1 μM and ≤3 μM is indicated by two stars (**))”; the “maximum fold (Fold) increase” value was “**** (a fold increase between >1.5 and ≤1.65 is indicated by four stars (****))”.

With `Cc1cc(-c2cc(=O)n3cc(N4CCNCC4)ccc3n2)cc2cnn(C)c12` [Compound 776, 2-(1,7-dimethyl-1H-indazol-5-yl)-7-(piperazin-1-yl)-4H-pyrido[1,2-a]pyrimidin-4-one], the melting point was 160 to 163 °C. Further, in data set [1], the EC (1.5-fold increase) lay within 1 to 3 µM. In addition, the “maximum fold (Fold) increase” value in data set [2] was “** (a fold increase between >1.2 and ≤1.35 is indicated by two stars (**))”.

Compound `COc1c(F)cc(-c2cc(=O)n3cc(N4CCNCC4)ccc3n2)cc1F` [Compound 183, 2-(3,5-difluoro-4-methoxyphenyl)-7-(piperazin-1-yl)-4H-pyrido[1,2-a]pyrimidin-4-one] returned a melting point of 167 to 169 °C. For the same compound, the EC (1.5-fold increase) in data set [1] was 1 to 3 µM. Moreover, in data set [2], the “maximum fold (Fold) increase” value is “** (a fold increase between >1.2 and ≤1.35 is indicated by two stars (**))”.
